PubChem BioAssay (NCI)
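Step 1: Grow cells in 96-well plates. Step 2: Expose to compound for 48 hours at 5 concentrations. Step 3: Interpolate endpoints linearly; if unreached, use highest concentration. GI50 marks 50% less growth. The concentration for full growth arrest is given as TGI.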

Legend:
Experiment in all cases: NCI-60 cell line screen, 48 h
NCI-H460 lung = test system: NCI-H460 lung
DU-145 prostate = test system: DU-145 prostate
MCF7 breast = test system: MCF7 breast
SF-539 CNS = test system: SF-539 CNS
SR leukemia = test system: SR leukemia
HOP-92 NSCLC = test system: HOP-92 NSCLC
OVCAR-5 ovarian = test system: OVCAR-5 ovarian
RXF 393 renal = test system: RXF 393 renal
SK-OV-3 ovarian = test system: SK-OV-3 ovarian
SNB-19 CNS = test system: SNB-19 CNS

Compound	GI50 (NCI-H460 lung) [µM]	TGI (NCI-H460 lung) [µM]	GI50 (DU-145 prostate) [µM]	TGI (DU-145 prostate) [µM]	GI50 (MCF7 breast) [µM]	TGI (MCF7 breast) [µM]	GI50 (SF-539 CNS) [µM]	TGI (SF-539 CNS) [µM]	GI50 (SR leukemia) [µM]	TGI (SR leukemia) [µM]	GI50 (HOP-92 NSCLC) [µM]	TGI (HOP-92 NSCLC) [µM]	GI50 (OVCAR-5 ovarian) [µM]	TGI (OVCAR-5 ovarian) [µM]	GI50 (RXF 393 renal) [µM]	TGI (RXF 393 renal) [µM]	GI50 (SK-OV-3 ovarian) [µM]	TGI (SK-OV-3 ovarian) [µM]	GI50 (SNB-19 CNS) [µM]	TGI (SNB-19 CNS) [µM]
COc1cc(-c2cc3ncccc3c3nc(OCCN(C)C)c4cccnc4c23)cc(OC)c1OC	0.349	1.88	0.5	> 100	0.389	14.8	0.741	3.39	0.244	2.07	1.1	3.2	1.34	3.68	0.473	2.07	0.458	2.18	0.576	29.5
CN1CCN(C(=O)[C@@]2(C)CC[C@]3(C)CC[C@]4(C)C(=CC[C@@H]5[C@@]6(C)CCC(=O)NC(C)(C)[C@@H]6CC[C@]54C)[C@@H]3C2)CC1	1.69	3.3	3.44	12.1	1.83	4.17	1.56	2.9	0.391	4.47	1.05	3.89	1.65	3.17	1.06	2.52	1.84	3.87	1.81	3.56
CCc1ccccc1NC(=O)C(C#N)C1=C(Cl)C(=O)c2ccccc2C1=O (stereo not given)	–	40.6	–	32.2	–	57	–	37.2	–	> 100	–	> 100	–	35.2	–	43.1	–	> 100	–	72.3
CC1(C)CC(=O)C=C(/C=C/Sc2c(Cl)c(Cl)nc(Cl)c2Cl)C1	11.8	32.1	10	21.7	2.47	8.05	11.8	26.4	3.89	> 100	16.7	35.2	14.5	29.7	7.61	22	19.9	34.8	15.9	29.5
Cc1nn(C(=O)c2ccccc2O)c2c1C(c1ccc(O)cc1O)SC(N)=N2 (stereo not given)	–	> 10	–	> 10	–	> 10	–	> 10	–	> 10	–	> 10	–	3.91	–	> 10	–	> 10	–	> 10
CCN1CCC(CC(=O)Nc2n[nH]c3nnc(-c4cccc(F)c4F)cc23)CC1	> 25	> 25	> 25	> 25	4.11	> 25	> 18.9	> 25	> 25	> 25	> 25	> 25	> 25	> 25	5.56	> 25	> 25	> 25	> 25	> 25
COC1=CC(c2ccc[nH]2)=N/C1=C\c1[nH]c(C)c(C(=O)CCC(=O)Oc2ccc3c(c2)CCC2C3CC[C@]3(C)[C@@H](O)CC[C@@H]23)c1C (stereo not given in full)	3.07	> 100	3.54	> 100	0.917	> 100	3.69	28.8	0.643	5.1	1.45	4.39	5.47	> 100	4.71	69.8	5.56	> 100	4.13	72.6
